According to PMC3331898 (2012):

Biological target: T1, retinoic acid receptor-related orphan receptor γ (RORγ) (Homo sapiens, UniProt P51449)
T1 sequence (P51449 265-507 limits assumed): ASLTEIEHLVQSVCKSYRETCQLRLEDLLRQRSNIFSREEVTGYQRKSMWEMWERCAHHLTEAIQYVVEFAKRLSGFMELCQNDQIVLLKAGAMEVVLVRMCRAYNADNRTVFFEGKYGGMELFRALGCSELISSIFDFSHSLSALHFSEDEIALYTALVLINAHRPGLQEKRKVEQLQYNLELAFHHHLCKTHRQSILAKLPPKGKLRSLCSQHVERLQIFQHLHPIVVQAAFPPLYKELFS
Assay type: binding

Compound: C[C@H]1O[C@@H](O[C@H]2[C@@H](O)C[C@H](O[C@H]3[C@@H](O)C[C@H](O[C@H]4CC[C@@]5(C)[C@H](CC[C@@H]6[C@@H]5C[C@@H](O)[C@]5(C)[C@@H](C7=CC(=O)OC7)CC[C@]65O)C4)O[C@@H]3C)O[C@@H]2C)C[C@H](O)[C@@H]1O [digoxin]
- differential HDX mass spectrometry: HDX) mass spectrometry analysis of the RORγ LBD in the presence and absence of digoxin, T1317, or SR2211
